Source: patent US10738042B2, “Phosphonamidates that are Bcl family antagonists for use in clinical management of conditions caused or mediated by senescent cells and for treating cancer” (Unity Biotechnology, priority 2018, dated 2020)

Legend:
[1] = system: 3MR or INK-ATTAC mice exposed to cigarette smoke; experiment: Cigarette smoke COPD model, oxygen saturation by pulse oximeter; type: in vivo, mouse; settings: after two months of cigarette smoke exposure; FIG. 8
Source text: The mice used in this study include the 3MR strain, described in US 2017/0027139 A1 and in Demaria et al., Dev Cell. 2014 Dec. 22; 31(6): 722-733. The 3MR mouse has a transgene encoding thymidine kinase that converts the prodrug ganciclovir (GCV) to a compound that is lethal to cells. The enzyme in the transgene is placed under control of the p16 promoter, which causes it to be specifically expressed in senescent cells. Treatment of the mice with GCV eliminates senescent cells.
Other mice used in this study include the INK-ATTAC strain, described in US 2015/0296755 A1 and in Baker et al., Nature 2011 Nov. 2; 479(7372):232-236. The INK-ATTAC mouse has a transgene encoding switchable caspase 8 under control of the p16 promoter. The caspase 8 can be activated by treating the mice with the switch compound AP20187, whereupon the caspase 8 directly induces apoptosis in senescent cells, eliminating them from the mouse.
To conduct the experiment, six-week-old 3MR (n=35) or INK-ATTAC (n=35) mice were chronically exposed to cigarette smoke generated from a Teague TE-10 system, an automatically-controlled cigarette smoking machine that produces a combination of side-stream and mainstream cigarette smoke in a chamber, which is transported to a collecting and mixing chamber where varying amounts of air is mixed with the smoke mixture. The COPD protocol was adapted from the COPD core facility at Johns Hopkins University (Rangasamy et al., 2004, J. Clin. Invest. 114:1248-1259; Yao et al., 2012, J. Clin. Invest. 122:2032-2045).
Mice received a total of 6 hours of cigarette smoke exposure per day, 5 days a week for 6 months. Each lighted cigarette (3R4F research cigarettes containing 10.9 mg of total particulate matter (TPM), 9.4 mg of tar, and 0.726 mg of nicotine, and 11.9 mg carbon monoxide per cigarette [University of Kentucky, Lexington, Ky.]) was puffed for 2 seconds and once every minute for a total of 8 puffs, with the flow rate of 1.05 L/min, to provide a standard puff of 35 cm3. The smoke machine was adjusted to produce a mixture of side stream smoke (89%) and mainstream smoke (11%) by smoldering 2 cigarettes at one time. The smoke chamber atmosphere was monitored for total suspended particulates (80-120 mg/m3) and carbon monoxide (350 ppm). […]
After two months of cigarette smoke (CS) exposure, lung function was assessed by monitoring oxygen saturation using the MouseSTAT PhysioSuite™ pulse oximeter (Kent Scientific). […] Mice were monitored for 30 seconds and the average peripheral capillary oxygen saturation (SpO2) measurement over this duration was calculated.

[2] = system: cancer cells in human patients; settings: cited from earlier work
[3] = system: p16, IL-6, MMP13 expression in the operated joint; experiment: Osteoarthritis model (ACL surgery), qRT-PCR of senescence markers and SASP factors in operated joints; type: in vivo, mouse; settings: 5.8 μg per operated knee intra-articular, 4 weeks post-surgery
Experimental: (§1) The model was implemented as follows. C57BL/6J mice underwent surgery to cut the anterior cruciate ligament of one rear limb to induce osteoarthritis in the joint of that limb. During week 3 and week 4 post-surgery, the mice were treated with 5.8 μg of Nutlin-3A (n=7) per operated knee by intra-articular injection, q.o.d. for 2 weeks. At the end of 4 weeks post-surgery, joints of the mice were monitored for presence of senescent cells, assessed for function, monitored for markers of inflammation, and underwent histological assessment.
Two control groups of mice were included in the studies performed: one group comprising C57BL/6J or 3MR mice that had undergone a sham surgery (n=3) (i.e., surgical procedures followed except for cutting the ACL) and intra-articular injections of vehicle parallel to the GCV (ganciclovir) treated group; and one group comprising C57BL/6J or 3MR mice that had undergone an ACL surgery and received intra-articular injections of vehicle (n=5) parallel to the GCV-treated group. RNA from the operated joints of mice from the Nutlin-3A treated mice was analyzed for expression of SASP factors (mmp3, IL-6) and senescence markers (p16). qRT-PCR was performed to detect mRNA levels.

[4] = system: C57BL/6J mice with ACL surgery-induced osteoarthritis; experiment: Osteoarthritis model, weight bearing test; type: in vivo, mouse; settings: 4 weeks post-surgery; FIG. 6A
Experimental: as §1
Function of the limbs was assessed 4 weeks post-surgery by a weight bearing test to determine which leg the mice favored. The mice were allowed to acclimate to the chamber on at least three occasions prior to taking measurements. Mice were maneuvered inside the chamber to stand with one hind paw on each scale. The weight that was placed on each hind limb was measured over a three second period. At least three separate measurements were made for each animal at each time point. The results were expressed as the percentage of the weight placed on the operated limb versus the contralateral unoperated limb.

[5] = system: C57BL/6J mice with ACL surgery-induced osteoarthritis; experiment: Osteoarthritis model, histopathology of joint tissue; type: in vivo, mouse; settings: FIGS. 6B-6D
Experimental: as §1

[6] = system: SASP factors and senescent cell markers in the aortic arch; experiment: Atherosclerosis model, RT-PCR of SASP factors and senescent cell markers in aortic arches; type: in vivo, mouse; settings: HFD, 25 mg/kg intraperitoneally
Experimental: Two groups of LDLR−/− mice (10 weeks) are fed a high fat diet (HFD) (Harlan Teklad TD.88137) having 42% calories from fat, beginning at Week 0 and throughout the study. Two groups of LDLR−/− mice (10 weeks) are fed normal chow (−HFD). From weeks 0-2, one group of HFD mice and −HFD mice are treated with Nutlin-3A (25 mg/kg, intraperitoneally). One treatment cycle is 14 days treatment, 14 days off. Vehicle is administered to one group of HFD mice and one group of −HFD mice. At week 4 (timepoint 1), one group of mice are sacrificed and to assess presence of senescent cells in the plaques. For the some of the remaining mice, Nutlin-3A and vehicle administration is repeated from weeks 4-6. […]
At the end of timepoint 1, LDLR−/− mice fed a HFD and treated with Nutlin-3A or vehicle were sacrificed (n=3, all groups), and the aortic arches were dissected for RT-PCR analysis of SASP factors and senescent cell markers. Values were normalized to GAPDH and expressed as fold-change versus age-matched, vehicle-treated LDLR−/− mice on a normal diet.
At the end of timepoint 2, LDLR−/− mice fed a HFD and treated with Nutlin-3A or vehicle (n=3 for all groups) were sacrificed, and aortic arches were dissected for RT-PCR analysis of SASP factors and senescent cell markers. Values were normalized to GAPDH and expressed as fold-change versus age-matched, vehicle-treated LDLR−/− mice on a normal diet.

[7] = system: LDLR-/- mice fed a high fat diet; experiment: Atherosclerosis model, Sudan IV staining of aortas for plaque; type: in vivo, mouse; settings: HFD; 25 mg/kg intraperitoneally; timepoint 3 (week 12); FIG. 9
Experimental: (§2) Two groups of LDLR−/− mice (10 weeks) are fed a high fat diet (HFD) (Harlan Teklad TD.88137) having 42% calories from fat, beginning at Week 0 and throughout the study. Two groups of LDLR−/− mice (10 weeks) are fed normal chow (−HFD). From weeks 0-2, one group of HFD mice and −HFD mice are treated with Nutlin-3A (25 mg/kg, intraperitoneally). One treatment cycle is 14 days treatment, 14 days off. Vehicle is administered to one group of HFD mice and one group of −HFD mice. At week 4 (timepoint 1), one group of mice are sacrificed and to assess presence of senescent cells in the plaques. For the some of the remaining mice, Nutlin-3A and vehicle administration is repeated from weeks 4-6. At week 8 (timepoint 2), the mice are sacrificed and to assess presence of senescent cells in the plaques. The remaining mice are treated with Nutlin-3A or vehicle from weeks 8-10. At week 12 (timepoint 3), the mice are sacrificed and to assess the level of plaque and the number of senescent cells in the plaques.
(§3) At the end of timepoint 3, LDLR−/− mice fed a HFD and treated with Nutlin-3A or vehicle (n=3 for all groups) were sacrificed, and aortas were dissected and stained with Sudan IV to detect the presence of lipid. Body composition of the mice was analyzed by MRI, and circulating blood cells were counted by Hemavet™.

[8] = system: LDLR-/- mice fed a high fat diet; experiment: Atherosclerosis model, body composition (MRI) and circulating blood cell counts (Hemavet); type: in vivo, mouse; settings: timepoint 3 (week 12)
Experimental: as §2, §3

CC1(C)CCC(c2ccc(Cl)cc2)=C(CN2CCN(c3ccc(C(=O)NS(=O)(=O)c4ccc(N[C@H](CCN5CCOCC5)CSc5ccccc5)c(S(=O)(=O)C(F)(F)F)c4)cc3)CC2)C1 [ABT-263]
SpO2 levels compared with untreated controls [1]: statistically significant increases

CN(C)CC[C@H](CSc1ccccc1)Nc1ccc(S(=O)(=O)NC(=O)c2ccc(N3CCN(Cc4ccccc4-c4ccc(Cl)cc4)CC3)cc2)cc1[N+](=O)[O-] [ABT-737]
effect against cancer cells in human patients [2]: effective against some types of cancer cells

CC[C@H](C(=O)N1CCCC[C@H]1C(=O)O[C@H](CCc1ccc(OC)c(OC)c1)c1cccc(OCC(=O)NCC(CNC(=O)COc2cccc([C@@H](CCc3ccc(OC)c(OC)c3)OC(=O)[C@@H]3CCCCN3C(=O)[C@@H](CC)c3cc(OC)c(OC)c(OC)c3)c2)CN(C)C)c1)c1cc(OC)c(OC)c(OC)c1 [AP2018]
SpO2 levels compared with untreated controls [1]: statistically significant increases

COc1ccc(C2=N[C@@H](c3ccc(Cl)cc3)[C@@H](c3ccc(Cl)cc3)N2C(=O)N2CCNC(=O)C2)c(OC(C)C)c1 [Nutlin-3A]
expression of p16 in the tissue ([3]; q.o.d. for 2 weeks, FIG. 5A): reduced the expression back to below the level of the controls | expression of IL-6 in the tissue ([3]; q.o.d. for 2 weeks, FIG. 5B): reduced the expression back to below the level of the controls | expression of MMP13 in the tissue ([3]; q.o.d. for 2 weeks, FIG. 5C): reduced the expression back to below the level of the controls | senescent cells in the joint [3]: cleared senescent cells from the joint | weight bearing: favoring of the unoperated hind limb over the operated hind limb [4]: abrogated this effect | destruction of the proteoglycan layer (histopathology) [5]: completely abrogated this effect | SpO2 levels compared with untreated controls [1]: statistically significant increases | expression of SASP factors and senescent cell markers MMP3, MMP13, PAI1, p21, IGFBP2, IL-1A, IL-1B ([6]; after one treatment cycle (timepoint 1, week 4)): reduced expression | expression of SASP factors and senescent cell markers in the aortic arch ([6]; multiple treatment cycles (timepoint 2, week 8)): reduced expression of most markers | reduction of surface area covered by plaques in the descending aorta [7]: about 45% | lymphocyte counts versus vehicle treated mice [8]: equivalent | platelet counts versus vehicle treated mice [8]: equivalent

Nc1nc(O)c2ncn(COC(CO)CO)c2n1 [ganciclovir]
SpO2 levels compared with untreated controls [1]: statistically significant increases
